Common to all, as to assay: NCI-60 cell line screen, 48 h
Assay [1] concerns MDA-MB-231 breast.
In assay [2] the test system is CCRF-CEM leukemia.
The test system of assay [3] is SW-620 colon.
For assay [4], the system named is NCI-H226 lung.
Assay [5] deals with PC-3 prostate.
The test system of assay [6] is A498 renal.
For assay [7], the system named is SF-295 CNS.
Assay [8] concerns UACC-257 melanoma.
Assay [9] relates to HCC-2998 colon.
The test system of assay [10] is NCI/ADR-RES ovarian.
Assay [11] concerns SK-MEL-28 melanoma.
Assay [12] has as its system RXF 393 renal.

Structures are written as SMILES.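 Cells were grown in 96-well plates and exposed to each compound for 48 hours at five concentrations; endpoints were interpolated linearly between bracketing concentrations, or set to the highest concentration if not reached. TGI is the concentration that stops growth completely.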 Bounds are passed on as bounds.

Regarding `O=S(=O)(CCC[C@H]1[C@@H](CCOCc2ccccc2)C2CCCN1O2)c1ccccc1` (stereo partly drawn), the TGI in assay [1], in assay [2], in [3], in [4], in assay [5] and in assay [6] was greater than 100 µM in each case. In addition, the TGI in assay [7], in assay [8], in assay [9], in assay [10], in assay [11] and in assay [12] was greater than 100 µM each time.

On to `O=[N+]([O-])/C(Cl)=C/C(=C1/Nc2ccccc2O1)[N+](=O)[O-]`, for which the TGI was 76.4 µM in assay [1]; 53.6 µM in [2]; 72.3 µM in assay [3]; 79.3 µM in assay [4]; 32.3 µM in assay [5]; 38.3 µM in assay [6]. Also, the TGI in assay [7] was determined as 73.7 µM; in assay [8], 25.1 µM; in assay [9], 28 µM; in assay [10], 73.2 µM; in [11] it was 35.9 µM; in [12] it was 38.6 µM.

Turning to `C=C(Cl)C(C)(Cl)CCC(Cl)C(C)C` (stereo not drawn), the TGI in [1], in assay [2], in [3], in assay [4], in assay [5] and in assay [6] was greater than 100 µM in each case. The TGI in [7], in assay [8], in [9], in [10], in [11] and in assay [12] was greater than 100 µM in each case.

`CCC1CCC2c3c([nH]c4ccc(C)cc34)C3C(=O)N(N(C)C)C(=O)C3C2C1` (stereo not drawn): the TGI in [1], in [2], in [3], in [4], in assay [5] and in assay [6] was greater than 100 µM in each case. The TGI was greater than 33.4 µM in assay [7]; greater than 100 µM in [8]; greater than 100 µM in [9]; greater than 53.5 µM in assay [10]; greater than 100 µM in assay [11]; 57.7 µM in assay [12].

Regarding `CCCCCCCCCCOCCOCCOCCOCCCCC(O)CCCCCCCC1=C[C@H](C)OC1=O` (stereo partly drawn), the TGI in [1] was found to be 30.8 µM; in assay [2] it was 51.1 µM; in assay [3], 29.5 µM; in assay [4], 23.4 µM; in assay [5] it was 20.9 µM; in assay [6], 26.5 µM. The TGI worked out at 21.5 µM in [7]; 19.8 µM in [8]; 27 µM in assay [9]; 41 µM in assay [10]; 25.3 µM in assay [11]; 23.5 µM in assay [12].

`Cc1ccsc1C(=S)Nc1ccc(Cl)c(/C=N/OC(C)C)c1`: the TGI in [1], in [2], in assay [3], in assay [4], in assay [5] and in assay [6] was greater than 100 µM in each case. Besides, the TGI is greater than 100 µM in assay [7]; greater than 100 µM in [8]; 64.3 µM in assay [9]; greater than 100 µM in assay [10]; greater than 100 µM in [11]; 69.4 µM in assay [12].

In the case of `Cc1cc2c(cc1Cl)SC(NNC1=NCCN1)=NS2(=O)=O`, the TGI in assay [1], in assay [2], in assay [3], in assay [4], in assay [5] and in [6] was greater than 10 µM throughout. In addition, the TGI in assay [7], in assay [8], in [9], in [10], in [11] and in assay [12] was greater than 10 µM in each case.

As to `O=c1[nH]nc(Cc2ccccc2)n1/N=C/c1ccc([N+](=O)[O-])cc1`, the TGI in assay [1], in assay [2], in assay [3], in [4], in [5] and in assay [6] was greater than 100 µM each time. Also, the TGI in assay [7], in [8], in assay [9], in assay [10], in [11] and in assay [12] was greater than 100 µM throughout.

In the case of `CCCC(=O)OC[n+]1ccc(-c2c(COC(=O)NC(C)C)c(COC(=O)NC(C)C)c3n2CCC3)cc1`, the TGI in assay [1], in assay [2], in [3], in assay [4], in assay [5] and in assay [6] was greater than 100 µM throughout. Also, the TGI in [7], in [8], in assay [9], in assay [10], in [11] and in [12] was greater than 100 µM each time.

With `CC(=O)NC1COC(COC(=O)CCCCCCCCCCNC(=O)c2ccc([N+](=O)[O-])c3c(=O)c4ccccc4[nH]c23)C(O)C1OC(C)C(=O)NC(C(=O)NC(CCC(N)=O)C(=O)OCc1ccccc1)C(C)C` (stereo not drawn), the TGI in assay [1] was greater than 100 µM; in assay [2], 62.7 µM; in assay [3] it was greater than 72.8 µM; in assay [4], 85.5 µM; in assay [5], 26.4 µM; in assay [6], 47.7 µM. For the same compound, the TGI is 42.7 µM in [7]; 38.6 µM in assay [8]; 14.3 µM in assay [9]; greater than 94.5 µM in [10]; 41.7 µM in assay [11]; 23.2 µM in assay [12].

Turning to `O=C(Nc1cccc(C(=O)NCCCO)c1)/C(=C/c1ccccc1)NC(=O)c1ccccc1`, the TGI in assay [1], in assay [2], in [3], in [4], in [5] and in assay [6] was greater than 100 µM each time. The TGI in assay [7], in [8], in assay [9], in [10], in assay [11] and in assay [12] was greater than 100 µM in each case.

Regarding `CN(C)c1ccc(/C=C(\NC(=O)c2ccccc2)C(=O)Nc2cccc(C(=O)NCCCO)c2)cc1`, the TGI in assay [1], in assay [2], in assay [3], in assay [4], in [5] and in assay [6] was greater than 100 µM throughout. The TGI in assay [7], in assay [8], in assay [9], in [10], in [11] and in [12] was greater than 100 µM in each case.

For the compound `O=CN1CCC23CC(O)CCC2C1Cc1cc(Oc2nnnn2-c2ccccc2)cc(O)c13` (stereo not drawn), the TGI in [1], in assay [2], in [3], in assay [4], in [5] and in assay [6] was greater than 100 µM each time. Besides, the TGI in [7], in assay [8], in assay [9], in assay [10], in assay [11] and in assay [12] was greater than 100 µM in each case.

With `O=C1/C(=C/c2ccc(O)c(O)c2)CC/C1=C\c1ccc(O)c(O)c1`, the TGI in assay [1] was greater than 100 µM; in assay [2], 9.81 µM; in assay [3], greater than 100 µM; in assay [4] it was 25.8 µM; in assay [5], greater than 100 µM; in assay [6], 63.2 µM. Besides, the TGI is greater than 100 µM in [7]; greater than 100 µM in assay [8]; greater than 100 µM in assay [9]; greater than 100 µM in [10]; greater than 100 µM in [11]; 19.3 µM in assay [12].

For the origin of these results see PubChem BioAssay (NCI).
